PubChem BioAssay (NCI)
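Dose response: 5 concentrations. Exposure: 48 h. Format: 96-well plates. Endpoint: linear interpolation; highest concentration if not reached. GI50 = concentration required for 50% inhibition of growth. At the TGI there is no net growth.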

What was measured:
Experiment in all cases: DTP human tumour cell line panel, 48 h
[1] = system: 786-0 renal
[2] = system: A498 renal
[3] = system: A549 NSCLC
[4] = system: ACHN renal
[5] = system: BT-549 breast
[6] = system: CAKI-1 renal
[7] = system: CCRF-CEM leukemia
[8] = system: COLO 205 colon
[9] = system: DU-145 prostate
[10] = system: EKVX NSCLC
[11] = system: HCC-2998 colon
[12] = system: HCT-116 colon
[13] = system: HCT-15 colon
[14] = system: HOP-62 NSCLC
[15] = system: HOP-92 NSCLC
[16] = system: HS 578T breast
[17] = system: HT29 colon
[18] = system: IGROV1 ovarian
[19] = system: K-562 leukemia
[20] = system: KM12 colon
[21] = system: LOX IMVI melanoma
[22] = system: M14 melanoma
[23] = system: MALME-3M melanoma
[24] = system: MCF7 breast
[25] = system: MDA-MB-231 breast
[26] = system: MDA-MB-435
[27] = system: MOLT-4 leukemia
[28] = system: NCI-H226 lung
[29] = system: NCI-H23 lung
[30] = system: NCI-H460 lung
[31] = system: NCI-H522 lung
[32] = system: NCI/ADR-RES ovarian
[33] = system: OVCAR-3 ovarian
[34] = system: OVCAR-4 ovarian
[35] = system: OVCAR-5 ovarian
[36] = system: OVCAR-8 ovarian
[37] = system: PC-3 prostate
[38] = system: RPMI-8226 leukemia
[39] = system: RXF 393 renal
[40] = system: SF-268 CNS
[41] = system: SF-295 CNS
[42] = system: SF-539 CNS
[43] = system: SK-MEL-2 melanoma
[44] = system: SK-MEL-28 melanoma
[45] = system: SK-MEL-5 melanoma
[46] = system: SK-OV-3 ovarian
[47] = system: SN12C renal
[48] = system: SNB-19 CNS
[49] = system: SNB-75 CNS
[50] = system: SR leukemia
[51] = system: SW-620 colon
[52] = system: T-47D breast
[53] = system: TK-10 renal
[54] = system: U251 CNS
[55] = system: UACC-257 melanoma
[56] = system: UACC-62 melanoma
[57] = system: UO-31 renal

## CC(=O)c1ccc(Nc2nc(Nc3ccc(F)cc3)nc(Nc3ccc(F)cc3)n2)cc1
[1]
  GI50: 14.1 µM
  TGI: 32.5 µM
[2]
  GI50: 4.69 µM
  TGI: 18.3 µM
[3]
  GI50: 5.81 µM
  TGI: 32.5 µM
[4]
  GI50: 14.7 µM
  TGI: 45.1 µM
[5]
  GI50: 10.1 µM
  TGI: 31.5 µM
[6]
  GI50: 9.02 µM
  TGI: 27.7 µM
[7]
  GI50: 3.77 µM
  TGI: > 100 µM
[8]
  GI50: 5.61 µM
  TGI: 43.7 µM
[9]
  GI50: 14.8 µM
  TGI: 55.7 µM
[10]
  GI50: 12.3 µM
  TGI: 57.8 µM
[11]
  GI50: 9.95 µM
  TGI: > 100 µM
[12]
  GI50: 12.7 µM
  TGI: > 100 µM
[13]
  GI50: 8.49 µM
  TGI: > 100 µM
[14]
  GI50: 13.7 µM
  TGI: 32.5 µM
[15]
  GI50: 5.64 µM
  TGI: 31.5 µM
[16]
  GI50: 4.85 µM
  TGI: 20.2 µM
[17]
  GI50: 5.79 µM
  TGI: > 100 µM
[18]
  GI50: 9.49 µM
  TGI: 28.2 µM
[19]
  GI50: 5.7 µM
  TGI: > 100 µM
[20]
  GI50: 8.67 µM
  TGI: 97.9 µM
[21]
  GI50: 18.2 µM
  TGI: > 100 µM
[22]
  GI50: 6.52 µM
  TGI: > 100 µM
[23]
  GI50: 6.73 µM
  TGI: 42.1 µM
[24]
  GI50: 4.12 µM
  TGI: 61.2 µM
[25]
  GI50: 6.81 µM
  TGI: 42.8 µM
[26]
  GI50: 3.24 µM
  TGI: > 100 µM
[27]
  GI50: 4.39 µM
  TGI: > 100 µM
[28]
  GI50: 20.7 µM
  TGI: > 100 µM
[29]
  GI50: 35.7 µM
  TGI: > 100 µM
[30]
  GI50: 8.65 µM
  TGI: > 100 µM
[31]
  GI50: 10.4 µM
  TGI: 41.3 µM
[32]
  GI50: 5.5 µM
  TGI: 54.1 µM
[33]
  GI50: 10.6 µM
  TGI: 33 µM
[34]
  GI50: 10.9 µM
  TGI: 41.3 µM
[35]
  GI50: 35.1 µM
  TGI: > 100 µM
[36]
  GI50: 6.91 µM
  TGI: 24.8 µM
[37]
  GI50: 8.89 µM
  TGI: > 100 µM
[38]
  GI50: 94.9 µM
  TGI: > 100 µM
[39]
  GI50: 3.15 µM
  TGI: 11.5 µM
[40]
  GI50: 10.8 µM
  TGI: 46.6 µM
[41]
  GI50: 7.13 µM
  TGI: 24.2 µM
[42]
  GI50: 3.07 µM
  TGI: 12.1 µM
[43]
  GI50: 10.1 µM
  TGI: 40.3 µM
[44]
  GI50: 11 µM
  TGI: 45 µM
[45]
  GI50: 7.07 µM
  TGI: 35.8 µM
[46]
  GI50: 10.5 µM
  TGI: 83.6 µM
[47]
  GI50: 23.6 µM
  TGI: > 100 µM
[48]
  GI50: 16.4 µM
  TGI: 53.8 µM
[49]
  GI50: 5.62 µM
  TGI: 29.5 µM
[50]
  GI50: 4.24 µM
  TGI: > 100 µM
[51]
  GI50: 13.4 µM
  TGI: 88 µM
[52]
  GI50: 4.77 µM
  TGI: 65.2 µM
[53]
  GI50: 15.6 µM
  TGI: 42.2 µM
[54]
  GI50: 11.7 µM
  TGI: 30.1 µM
[55]
  GI50: 14.3 µM
  TGI: > 100 µM
[56]
  GI50: 28.9 µM
  TGI: > 100 µM
[57]
  GI50: 7.68 µM
  TGI: 24.3 µM
